Structures are written as SMILES. Structures can show the parent of a compound that is named as a salt.

The text below walks through data of patent US8734816B2, “Porous nanoparticle supported lipid bilayer nanostructures” (STC.UNM, priority 2009, dated 2014).

Series [1] in a line: Lipid association with mesoporous silica nanoparticles. Type of series: physicochemical. The following applies: <20 μg liposome per 0.5 mg silica particles; 5% DHPE-Texas Red label; neutral pH. The protocol: To measure the amount of lipid associated with silica nanoparticles as a function of lipid concentration, about 20 μL aliquots of 25 mg/mL silica nanoparticles were mixed with 1, 2, 3, 5, 7, 10, 20, and 30 μL of 2.5 mg/mL lipids. The lipids tested included DOPC, DOPS and DOTAP, all containing 5% DHPE-Texas Red labels. The mixtures were centrifuged. The Texas Red absorbance from the supernatant and the silica nanoparticles was measured.

Series [2] in a line: Colloidal stability of the silica/lipid mixture as a function of lipid concentration (dynamic light scattering). The following applies: at low liposome contents. Type of series: physicochemical. The protocol:
Depending on the relative amount of liposome added, silica particles first aggregated at low lipid concentrations to form large aggregates, which disappeared upon adding more liposomes. […] Similar observations were also reported for polystyrene beads, where aggregation was attributed to liposome mediated nanoparticle assembly at low lipid concentrations. Therefore, to form supported bilayers with good colloidal stability, excess amount of liposomes (50 μg liposome per 0.5 mg silica) were used.

Series [3] in a line: Quantification of calcein encapsulated / concentration estimation inside mesoporous silica nanoparticles. The series is classed as physicochemical. The following applies: supported bilayers of different lipids. How it is done:
To prepare supported bilayers that encapsulate calcein, the silica nanoparticles were first mixed with 250 μM calcein and liposomes were subsequently added. The remaining procedures were the same as described above.
Mesoporous silica nanoparticles (about 50 mg, no FITC modification) were dispersed in 2 mL water. About 5 μL of 100 mM calcein was added so the final dye concentration was ˜250 μM. The solution was divided into 50 μL aliquots and equal volumes of liposomes of different compositions were mixed to form supported bilayers. The supported bilayers were centrifuged and washed three times with 200 μL of 0.25×PBS to remove free calcein. Finally, about 50 μL of 1% SDS buffer solution was added to the precipitated supported bilayers to disrupt the lipid bilayer and release the calcein dye. About 150 μL of 0.25×PBS was then added to make the final volume to be about 200 μL and the tubes were centrifuged at 15000 rpm for about 2 minutes to precipitate silica nanoparticles. About 10 μL from the supernatant was transferred into a quartz microcuvette with a path length of about 1 cm to measure the absorbance at a wavelength of about 500 nm, which is proportional to the amount of calcein dye retained in the mesoporous silica nanoparticle.
Because the volume of this final solution was about 200 μL, the retained calcein in silica was then about 9 nmol. […]

Series [4] relates to Chinese Hamster Ovary (CHO) cells. Kind of series: Cellular uptake of supported bilayers (protocells). As to conditions: green fluorescence of cells. Type of series: cell-based. The protocol: Cell Culture: Chinese Hamster Ovary cells (CHO) were obtained from the American Type Culture Collection (ATCC) and maintained in K-12 media supplemented with about 10% fetal bovine serum, about 1% penicillin and about 1% streptomycin. The media were changed every two to three days and the cells were passaged by trypsinization. To prepare samples for confocal imaging, round glass cover slips were used for cell growth. The glass slides were treated with 0.1M KOH for at least 24 hours before use. Cells in the media were dropped onto the cover slips and the slips were kept in Petri dishes. The cells were kept in an incubator at 37° C. with 5% CO2 and 95% humidity. Cellular uptake of supported bilayers (protocells): about 1 mL of serum free media was warmed to about 37° C. and about 10 μL of the above prepared supported bilayers were added and vortexed. To study the uptake of supported bilayers by CHO cells, the cells were grown to ˜70% confluence. The old media was removed and fresh media with supported bilayers were introduced. The cells were incubated for about four hours at about 37° C. and free particles were washed away with PBS and media before imaging. Confocal fluorescence microscopy: A Bio-Rad Radiance 2100 confocal fluorescence microscope system was used for imaging cells. […]

Turning to `CCCCCCCC/C=C\CCCCCCCC(=O)OC[C@H](COP(=O)([O-])OCC[N+](C)(C)C)OC(=O)CCCCCCC/C=C\CCCCCCCC` [DOPC, 1,2-Dioleoyl-sn-Glycero-3-Phosphocholine], the “association of liposomes with silica nanoparticles” value (“association of liposomes” for short) in series [1] was “almost quantitatively associated”. The “average size of particles” value in series [2] is “significant increase”. As for `CCCCCCCC/C=C\CCCCCCCC(=O)OC[C@H](COP(=O)(O)OC[C@H](N)C(=O)O)OC(=O)CCCCCCC/C=C\CCCCCCCC` [DOPS, 1,2-Dioleoyl-sn-Glycero-3-[Phospho-L-Serine] (Sodium Salt)], in series [1], the “association of liposomes” value is listed as “did not associate”. With `CCCCCCCC/C=C\CCCCCCCC(=O)OCC(C[N+](C)(C)C)OC(=O)CCCCCCC/C=C\CCCCCCCC.[Cl-]` (stereo not shown) [DOTAP, 1,2-Dioleoyl-3-Trimethylammonium-Propane (Chloride Salt)], in series [3], the “calcein encapsulation efficiency (comparison of lipids)” value is recorded as “highest”. Further, the “association of liposomes” value in series [1] is reported as “almost quantitatively associated”. For the same molecule, the “average size of particles” value in series [2] is “significant increase”. In the case of `O=C(O)CN(CC(=O)O)Cc1cc2c(cc1O)Oc1cc(O)c(CN(CC(=O)O)CC(=O)O)cc1C21OC(=O)c2ccccc21` [calcein], the “uptake of calcein into CHO cells” value in series [4] is “can not take”.
